Assay: Food intake and body weight in haloperidol-treated albino rats
Assay type: in vivo
Conditions: for % change in body weight: day-21 vs initial value; for % change in food intake: during the 21-day period vs initial value
Description: The results of administration of the Type-I saponins or the total extractives (comprising Type-I to -III compounds) of Chlorophytum arundinaceum on the attendant changes in the food intake and body weight of albino rats (270±20 grams) are given in Table-1. Administration of haloperidol causes obesity as it appreciably increases food intake and induces rapid weight gain. The feeder contained at least three times more pellets than are normally consumed. Food intake and the body weight were assessed for one week in all rats prior to initiation of administration of the test compound(s). Both Type-I saponins and the total extractives annulled the gluttonous craving for food due to haloperidol with appreciable decrease in weight gain, compared to the haloperidol group. […] Sibutramine is used as a recognized anorexic drug.

[1] = haloperidol 20 mg/Kg i.p. once daily for 21 days, alone
[2] = 10 mg/Kg p.o. once daily for 21 days + haloperidol 20 mg/Kg i.p.

| Structure (SMILES) | % change in body weight [1] | % change in food intake [1] | % change in body weight [2] | % change in food intake [2] [%] |
| --- | --- | --- | --- | --- |
| O=C(CCCN1CCC(O)(c2ccc(Cl)cc2)CC1)c1ccc(F)cc1 [Haloperidol] | +35.13% | +45.32% | – | – |
| CC(C)CC(N(C)C)C1(c2ccc(Cl)cc2)CCC1 (stereo not shown) [Sibutramine] | – | – | +0.28% | −0.37 |
